Results as given in PMC8963331 (Toxicological Sciences, 2022).
Entries after “also recorded” stand apart in the source; their conditions may differ.

Assays:
[1] = system: JAK1, JAK2, JAK3, and TYK2; test: Human cellular JAK IC50; format: cell-based; settings: corrected with human plasma protein binding of 85.4%
[2] = system: mouse colitis model; settings: ref Sandborn et al., 2020; cited from earlier work
[3] = system: Crl:CD Sprague Dawley (SD) rats; test: Rat fertility and early embryonic development; format: in vivo; settings: for Fertility index / Mating index / Pregnancy rate / Females mated: rat FEED; for Females mated: 22 females paired
[4] = Rat fertility and early embryonic development; format: in vivo; settings: both, Sprague-Dawley (Crl:CD), rat, in vivo, oral
[5] = Rat repeat-dose toxicity studies: plasma toxicokinetics; format: in vivo; settings: for AUC(0-t) / Cmax: plasma, po; for AUC(0-t) / Cmax / Mean Cave: last day of dosing; for Cmax: Mean Cmax

In the case of Cc1cc(Nc2cc3ncccc3c(N[C@@H]3C[C@H]4CC[C@@H](C3)N4CCC#N)n2)n[nH]1 [izencitinib, Izencitinib], the “human cellular JAK IC50 range, human plasma protein binding corrected” value [1] is listed as 0.08718 to 0.5501 mg/L, the “JAK inhibitor-associated splenic natural killer (NK) cell reductions” value [2] is listed as “spared” and the Fertility index ([3]; 30 mg/kg/day oral) is listed as 90.9%. It also gave a Mating index ([3]; 30 mg/kg/day oral) of 100.0%, a Pregnancy rate ([3]; 30 mg/kg/day oral) of 90.9% and a Females mated ([3]; 30 mg/kg/day oral) of 22 n. It also gave a Females mated ([3]; 100 mg/kg/day oral) of 21 n, a Fertility index ([3]; 1000 mg/kg/day oral) of 95.2% and a Mating index ([3]; 1000 mg/kg/day oral) of 95.5%. For the same molecule, the Pregnancy rate ([3]; 1000 mg/kg/day oral) was 90.9%, the Females mated ([3]; 1000 mg/kg/day oral) was 21 n and the “effect on male or female fertility” value ([3]; rat, up to 1000 mg/kg/day) was “did not affect; also recorded: No effects”. For the same molecule, the NOAEL [4] was 1000 mg/kg/day, the AUC(0-t) ([5]; female, Sprague-Dawley (Crl:CD), rat, 30 mg/kg/day, Mean AUC0–24, rat female, 30 mg/kg/day oral, 26 weeks) was 0.0167 µg·h/mL and the Cmax ([5]; female, Sprague-Dawley (Crl:CD), rat, 30 mg/kg/day, rat female, 30 mg/kg/day oral, 26 weeks) was 6.02 ng/mL. The AUC(0-t) ([5]; female, Sprague-Dawley (Crl:CD), rat, 100 mg/kg/day, Mean AUC0–24, rat female, 100 mg/kg/day oral, 26 weeks) was 0.127 µg·h/mL, the Cmax ([5]; female, Sprague-Dawley (Crl:CD), rat, 100 mg/kg/day, rat female, 100 mg/kg/day oral, 26 weeks) was 32.5 ng/mL and the AUC(0-t) ([5]; female, Sprague-Dawley (Crl:CD), rat, 1000 mg/kg/day, Mean AUC0–24, rat female, 1000 mg/kg/day oral, 26 weeks) was 0.453 µg·h/mL. The Cmax ([5]; female, Sprague-Dawley (Crl:CD), rat, 1000 mg/kg/day, rat female, 1000 mg/kg/day oral, 26 weeks) was 96.3 ng/mL, the AUC(0-t) ([5]; female, Sprague-Dawley, rat, 30 mg/kg/day, Mean AUC0–24, rat female, 30 mg/kg/day oral, 4 weeks) was 0.0257 µg·h/mL and the AUC(0-t) ([5]; female, Sprague-Dawley, rat, 30 mg/kg/day, Mean AUC0–24, rat female, 30 mg/kg/day oral, 13 weeks) was 0.0546 µg·h/mL. It also gave an AUC(0-t) ([5]; female, Sprague-Dawley, rat, 100 mg/kg/day, Mean AUC0–24, rat female, 100 mg/kg/day oral, 4 weeks) of 0.0705 µg·h/mL, an AUC(0-t) ([5]; female, Sprague-Dawley, rat, 100 mg/kg/day, Mean AUC0–24, rat female, 100 mg/kg/day oral, 13 weeks) of 0.227 µg·h/mL and an AUC(0-t) ([5]; female, Sprague-Dawley, rat, 1000 mg/kg/day, Mean AUC0–24, rat female, 1000 mg/kg/day oral, 4 weeks) of 0.384 µg·h/mL. For the same molecule, the AUC(0-t) ([5]; male, Sprague-Dawley (Crl:CD), rat, 30 mg/kg/day, Mean AUC0–24, rat male, 30 mg/kg/day oral, 26 weeks) was 0.0346 µg·h/mL, the Cmax ([5]; male, Sprague-Dawley (Crl:CD), rat, 30 mg/kg/day, rat male, 30 mg/kg/day oral, 26 weeks) was 4.52 ng/mL and the AUC(0-t) ([5]; male, Sprague-Dawley (Crl:CD), rat, 100 mg/kg/day, Mean AUC0–24, rat male, 100 mg/kg/day oral, 26 weeks) was 0.0957 µg·h/mL. For the same molecule, the Cmax ([5]; male, Sprague-Dawley (Crl:CD), rat, 100 mg/kg/day, rat male, 100 mg/kg/day oral, 26 weeks) was 15.8 ng/mL, the AUC(0-t) ([5]; male, Sprague-Dawley (Crl:CD), rat, 1000 mg/kg/day, Mean AUC0–24, rat male, 1000 mg/kg/day oral, 26 weeks) was 0.384 µg·h/mL and the Cmax ([5]; male, Sprague-Dawley (Crl:CD), rat, 1000 mg/kg/day, rat male, 1000 mg/kg/day oral, 26 weeks) was 60.6 ng/mL. For the same molecule, the AUC(0-t) ([5]; male, Sprague-Dawley, rat, 30 mg/kg/day, Mean AUC0–24, rat male, 30 mg/kg/day oral, 4 weeks) was 0.0234 µg·h/mL, the AUC(0-t) ([5]; male, Sprague-Dawley, rat, 30 mg/kg/day, Mean AUC0–24, rat male, 30 mg/kg/day oral, 13 weeks) was 0.0582 µg·h/mL and the AUC(0-t) ([5]; male, Sprague-Dawley, rat, 100 mg/kg/day, Mean AUC0–24, rat male, 100 mg/kg/day oral, 4 weeks) was 0.0713 µg·h/mL. The AUC(0-t) ([5]; male, Sprague-Dawley, rat, 100 mg/kg/day, Mean AUC0–24, rat male, 100 mg/kg/day oral, 13 weeks) was 0.131 µg·h/mL, the AUC(0-t) ([5]; male, Sprague-Dawley, rat, 1000 mg/kg/day, Mean AUC0–24, rat male, 1000 mg/kg/day oral, 4 weeks) was 0.335 µg·h/mL and the AUC(0-t) ([5]; male, Sprague-Dawley, rat, 1000 mg/kg/day, Mean AUC0–24, rat male, 1000 mg/kg/day oral, 13 weeks) was 0.452 µg·h/mL. For the same molecule, the “nonclinical:clinical systemic AUC margin at the NOAEL” value ([5]; rat 26-week study, 1000 mg/kg/day, vs human 300 mg QD) was 8 fold, the “Mean Cave” value ([5]; rat female, 30 mg/kg/day oral, 4 weeks) was 1.07 ng/mL and the “Mean Cave” value ([5]; rat female, 30 mg/kg/day oral, 13 weeks) was 2.28 ng/mL. For the same molecule, the “Mean Cave” value ([5]; rat female, 30 mg/kg/day oral, 26 weeks) was 0.700 ng/mL, the “Mean Cave” value ([5]; rat female, 100 mg/kg/day oral, 4 weeks) was 2.94 ng/mL and the “Mean Cave” value ([5]; rat female, 100 mg/kg/day oral, 13 weeks) was 9.46 ng/mL. The “Mean Cave” value ([5]; rat female, 100 mg/kg/day oral, 26 weeks) was 5.29 ng/mL, the “Mean Cave” value ([5]; rat female, 1000 mg/kg/day oral, 4 weeks) was 16.0 ng/mL and the “Mean Cave” value ([5]; rat female, 1000 mg/kg/day oral, 13 weeks) was 63.8 ng/mL. For the same molecule, the “Mean Cave” value ([5]; rat female, 1000 mg/kg/day oral, 26 weeks) was 18.9 ng/mL, the “Mean Cave” value ([5]; rat male, 30 mg/kg/day oral, 4 weeks) was 0.975 ng/mL and the “Mean Cave” value ([5]; rat male, 30 mg/kg/day oral, 13 weeks) was 2.43 ng/mL. The “Mean Cave” value ([5]; rat male, 30 mg/kg/day oral, 26 weeks) was 1.44 ng/mL, the “Mean Cave” value ([5]; rat male, 100 mg/kg/day oral, 4 weeks) was 2.97 ng/mL and the “Mean Cave” value ([5]; rat male, 100 mg/kg/day oral, 13 weeks) was 5.46 ng/mL. For the same molecule, the “Mean Cave” value ([5]; rat male, 100 mg/kg/day oral, 26 weeks) was 3.99 ng/mL, the “Mean Cave” value ([5]; rat male, 1000 mg/kg/day oral, 4 weeks) was 14.0 ng/mL and the “Mean Cave” value ([5]; rat male, 1000 mg/kg/day oral, 13 weeks) was 18.8 ng/mL. For the same molecule, the “Mean Cave” value ([5]; rat male, 1000 mg/kg/day oral, 26 weeks) was 16.0 ng/mL, the “plasma Cave:protein-corrected JAK IC50 ratio” value ([5]; rat, 30 mg/kg/day) was less than 1 × and the “plasma Cave:uncorrected JAK IC50 ratio” value ([5]; rat, 30 mg/kg/day) was less than 1 ×. The “plasma concentrations versus uncorrected human JAK IC50 threshold” value ([5]; rat, 100 mg/kg/day) was “only briefly rose above” and the “plasma Cave:protein-corrected JAK IC50 ratio” value ([5]; rat, 1000 mg/kg/day) was less than 1.
